# Experimental data: patent publication US20100273895A1, “FORMULATIONS OF CANNABIDIOL AND PRODRUGS OF CANNABIDIOL AND METHODS OF USING THE SAME” (AllTranz Inc., priority 2009, published 2010)
# Experiment: CBD accelerated stability study at 40° C.
# Type: physicochemical
# Method: In order to assess the stability of cannabidiol formulations, the pH rate profiles over a range of probable pHs were studied. The rate profile with the lowest Kdeg would be desirable in order to ensure a two-year shelf life for a cannabidiol gel. The pH ranges studied were 4.0, 5.0, 5.5, 6.0, 6.5 and 7.0 prepared with either an acetate (0.01M: pH 4.0, 5.0 and 5.5) or phosphate (0.01 M: pH 6.0, 6.5 and 7.0) buffer system and maintained at an ionic strength of 0.154 M with NaCl at 40° C. CBD was prepared at 1 mg/mL and analyzed initially at a theoretical 10 μg/ml concentration. The results of these studies appear in FIGS. 13 and 14.
# Additional stability studies were conducted with CBD synthesized by alternate routes. […] Over sixty-five days, the purity of CBD is still greater than 99%.
# [1] = sixty-five day accelerated stability study at 40° C.
smiles,measurement,setting,value
"C=C(C)[C@@H]1CCC(C)=C[C@H]1c1c(O)cc(CCCCC)cc1O [CBD, cannabidiol]",28.9 min peak as share of the total area compared to the CBD peak,65 days in a 40° C. chamber,approximately 0.74%
same,purity of CBD,over sixty-five days,greater than 99%
same,degradation,[1],no significant degradation
same,purity remaining,[1],> 98%
